From patent US10208067B2, “Compounds for treating spinal muscular atrophy” (Hoffmann-La Roche Inc., priority 2015, dated 2019) come the findings set out here.

Where two headings read alike, the source gives them in different places.

Experiment [1] relates to full length SMN2 minigene mRNA (HEK293H cells stably transfected with SMN2-A minigene). The experiment in a line: RT-qPCR assay for SMN2 minigene pre-mRNA splicing in cultured cells. The format is cell-based. Conditions: Homo sapiens, HEK293-H, 24 hours. Background: In qPCR the cycle at which signal appears reflects the starting amount.
For experiment [2], the system named is SMN protein in SMA patient fibroblast cells (GM03813). The experiment in a line: SMN protein assay (HTRF) in cultured cells. It is filed as cell-based. Conditions: Homo sapiens, SMA Type 1 patient fibroblasts, 48 hours; for EC (1.5-fold): concentration producing 1.5 times SMN protein vs vehicle, read-out: EC1.5x SMN protein; for maximal fold induction: relative to vehicle control, read-out: max. fold increase of SMN protein. As for the experimental part:
The SMN HTRF (homogeneous time resolved fluorescence) assay is used to quantify the level of SMN protein in SMA patient fibroblast cells treated with test compounds. Materials used and respective sources are listed below in Table 4.
Cells are thawed and cultured in DMEM-10% FBS for 72 hours. Cells are trypsinized, counted and re-suspended to a concentration of 25,000 cells/mL in DMEM-10% FBS. The cell suspensions are plated at 5,000 cells per well in a 96 well microtiter plate and incubated for […]. […] 1 μL of test compound solution is transferred to cell-containing wells and cells are incubated for 48 hours in a cell culture incubator (37° C., 5% CO2, 100% relative humidity). Triplicate samples are set up for each test compound concentration. After 48 hours, the supernatant is removed from the wells and 25 μL of the RIPA lysis buffer, containing protease inhibitors, is added to the wells and incubated with shaking at room temperature for 1 hour. 25 μL of the diluent is added and then 35 μL of the resulting lysate is transferred to a 384-well plate, where each well contains 5 μL of the antibody solution (1:100 dilution of anti-SMN d2 and anti-SMN cryptate in SMN reconstitution buffer). The plate is centrifuged for 1 minute to bring the solution to the bottom of the wells, then incubated overnight at room temperature. Fluorescence for each well of the plate at 665 nm and 620 nm is measured on an EnVision multilabel plate reader (Perkin-Elmer).
The normalized fluorescence signal is calculated for each sample, Blank and vehicle control well by dividing the signal at 665 nm by the signal at 620 nm. Normalizing the signal accounts for possible fluorescence quenching due to the matrix effect of the lysate. The ΔF value (a measurement of SMN protein abundance as a percent value) for each sample well is calculated by subtracting the normalized average fluorescence for the Blank control wells from the normalized fluorescence for each sample well, then dividing this difference by the normalized average fluorescence for the Blank control wells and multiplying the resulting value by 100. The ΔF value for each sample well represents the SMN protein abundance from test compound-treated samples. The ΔF value for each sample well is divided by the ΔF value for the vehicle control wells to calculate the fold increase in SMN protein abundance relative to the vehicle control. Table 5 provides EC1-5× concentrations for SMN protein expression that was obtained from the 7-point concentration data generated according to the above procedure for particular compounds of the present invention.
Table 6 provides the maximum fold increase of SMN protein that was obtained from the 7-point concentration data generated according to the above procedure for particular compounds of the present invention
For orientation: Time-resolved FRET reads energy transfer from a long-lived donor to a nearby acceptor.

[3] abbreviates: Table 3 (title: production of full length SMN2 minigene mRNA), read-out: EC1.5x SMN protein.
Setting [4] is: concentration increasing full length SMN2 minigene mRNA 1.5-fold vs vehicle, read-out: EC1.5x minigene.

`Cc1nc2ccc(-c3cc(=O)n4cc(N5CC6(CCNCC6)C5)ccc4n3)nn2n1` [Example 38, 7-(2,7-diazaspiro[3.5]nonan-2-yl)-2-(2-methyl-[1,2,4]triazolo[1,5-b]pyridazin-6-yl)pyrido[1,2-a]pyrimidin-4-one]: the EC (1.5-fold) in experiment [1] (setting [3]) worked out at 0.002 µM. Also, in experiment [2], the EC (1.5-fold) is 0.0199 µM and the maximal fold induction is 1.69.
As for `Cc1nc2ncc(-c3cc(=O)n4cc(N5C[C@H](C)N[C@@H](C)C5)ccc4n3)cn2n1` [Example 11, 7-[(3S,5S)-3,5-dimethylpiperazin-1-yl]-2-(2-methyl-[1,2,4]triazolo[1,5-a]pyrimidin-6-yl)pyrido[1,2-a]pyrimidin-4-one], in experiment [1] (setting [4]), the EC (1.5-fold) was < 0.03 µM. Besides, in experiment [2], the EC (1.5-fold) is 0.175 µM and the maximal fold induction was 1.77.
`Cc1nc2ncc(-c3cc(=O)n4cc(N5CCN(C6CNC6)CC5)ccc4n3)cn2n1` [Example 10, 7-[4-(azetidin-3-yl)piperazin-1-yl]-2-(2-methyl-[1,2,4]triazolo[1,5-a]pyrimidin-6-yl)pyrido[1,2-a]pyrimidin-4-one]: in experiment [1] (setting [4]), the EC (1.5-fold) was found to be 5.93 µM. For the same molecule, in experiment [2], the EC (1.5-fold) was found to be 30 µM and the maximal fold induction amounted to 1.5.
As to `CCN1CCN(c2cc(C)c3nc(-c4ccc5nc(C)nn5n4)cc(=O)n3c2)CC1` [Example 32, 7-(4-ethylpiperazin-1-yl)-9-methyl-2-(2-methyl-[1,2,4]triazolo[1,5-b]pyridazin-6-yl)pyrido[1,2-a]pyrimidin-4-one], the EC (1.5-fold) in experiment [1] (setting [3]) was determined as 0.0038 µM; in experiment [2], 0.0725 µM. For the same molecule, the maximal fold induction in experiment [2] is 1.97.
Take `Cc1nc2ccc(-c3cc(=O)n4cc(N5CCN[C@@H](C)C5)cc(C)c4n3)nn2n1` [Example 45, 9-methyl-7-[(3S)-3-methylpiperazin-1-yl]-2-(2-methyl-[1,2,4]triazolo[1,5-b]pyridazin-6-yl)pyrido[1,2-a]pyrimidin-4-one]: the EC (1.5-fold) was found to be 0.0008 µM in experiment [1] (setting [3]) and 0.009 µM in experiment [2]. The maximal fold induction in experiment [2] came out at 2.04.
As for `Cc1nc2ccc(-c3cc(=O)n4cc(N5CCNCC5)cc(C)c4n3)nn2n1` [Example 15, 9-methyl-7-piperazin-1-yl-2-(2-methyl-[1,2,4]triazolo[1,5-b]pyridazin-6-yl)pyrido[1,2-a]pyrimidin-4-one], in experiment [1] (setting [4]), the EC (1.5-fold) was < 0.03 µM. For the same molecule, in experiment [2], the EC (1.5-fold) was < 0.03 µM and the maximal fold induction turned out to be 1.82.
Regarding `Cc1nc2ncc(-c3cc(=O)n4cc(N5CCC(CN6CCCC6)CC5)ccc4n3)cn2n1` [Example 12, 7-[4-(pyrrolidin-1-ylmethyl)-1-piperidyl]-2-(2-methyl-[1,2,4]triazolo[1,5-a]pyrimidin-6-yl)-pyrido[1,2-a]pyrimidin-4-one], the EC (1.5-fold) in experiment [1] (setting [4]) was determined as 0.161 µM. In experiment [2], the EC (1.5-fold) is > 31.6 µM and the maximal fold induction came to 1.36.
`Cc1nc2ncc(-c3cc(=O)n4cc(N5CC6(CCNCC6)C5)ccc4n3)cn2n1` [Example 5, 7-(2,7-diazaspiro[3.5]nonan-2-yl)-2-(2-methyl-[1,2,4]triazolo[1,5-a]pyrimidin-6-yl)pyrido[1,2-a]pyrimidin-4-one]: the EC (1.5-fold) in experiment [1] (setting [4]) was < 0.0317 µM. Besides, in experiment [2], the EC (1.5-fold) stood at 0.106 µM and the maximal fold induction worked out at 1.99.
Take `Cc1nc2ncc(-c3cc(=O)n4cc(N5CC6(CN(C)C6)C5)ccc4n3)cn2n1` [Example 21, 7-(6-methyl-2,6-diazaspiro[3.3]heptan-2-yl)-2-(2-methyl-[1,2,4]triazolo[1,5-a]pyrimidin-6-yl)pyrido[1,2-a]pyrimidin-4-one]: the EC (1.5-fold) came to 0.145 µM in experiment [1] (setting [3]) and 0.56 µM in experiment [2]. For the same molecule, in experiment [2], the maximal fold induction was found to be 1.6.
On the same counts, the results for `Cc1nc2ccc(-c3cc(=O)n4cc(N5CCN[C@@H](C)C5)ccc4n3)nn2n1` [Example 18, 7-[(3S)-3-methylpiperazin-1-yl]-2-(2-methyl-[1,2,4]triazolo[1,5-b]pyridazin-6-yl)pyrido[1,2-a]pyrimidin-4-one] are 0.0176 µM, 0.0515 µM and 1.72.
Take `Cc1nc2ccc(-c3cc(=O)n4cc(N5C[C@H](C)N[C@@H](C)C5)ccc4n3)nn2n1` [Example 42, 7-[(3S,5S)-3,5-dimethylpiperazin-1-yl]-2-(2-methyl-[1,2,4]triazolo[1,5-b]pyridazin-6-yl)pyrido[1,2-a]pyrimidin-4-one]: the EC (1.5-fold) in experiment [1] (setting [3]) came to 0.0083 µM. In experiment [2], the EC (1.5-fold) worked out at 0.0629 µM and the maximal fold induction was 1.81.
As for `Cc1nc2ccc(-c3cc(=O)n4cc(N5C[C@H](C)N[C@@H](C)C5)cc(C)c4n3)nn2n1` [Example 37, 7-[(3S,5S)-3,5-dimethylpiperazin-1-yl]-9-methyl-2-(2-methyl-[1,2,4]triazolo[1,5-b]pyridazin-6-yl)pyrido[1,2-a]pyrimidin-4-one], in experiment [1] (setting [3]), the EC (1.5-fold) was found to be 0.0026 µM. For the same molecule, in experiment [2], the EC (1.5-fold) turned out to be 0.0337 µM and the maximal fold induction was found to be 1.78.
Take `Cc1nc2ncc(-c3cc(=O)n4cc(N5CC6CNC6C5)ccc4n3)cn2n1` (stereo not drawn) [Example 9, 7-(3,6-diazabicyclo[3.2.0]heptan-3-yl)-2-(2-methyl-[1,2,4]triazolo[1,5-a]pyrimidin-6-yl)pyrido[1,2-a]pyrimidin-4-one]: the EC (1.5-fold) in experiment [1] (setting [4]) stood at 0.283 µM; in experiment [2], 2.88 µM. Also, the maximal fold induction in experiment [2] amounted to 1.9.
`Cc1nc2ccc(-c3cc(=O)n4cc(N5C[C@H]6CN(C)C[C@H]6C5)cc(C)c4n3)nn2n1` [Example 29, 7-[(3aS,6aR)-2-methyl-1,3,3a,4,6,6a-hexahydropyrrolo[3,4-c]pyrrol-5-yl]-9-methyl-2-(2-methyl-[1,2,4]triazolo[1,5-b]pyridazin-6-yl)pyrido[1,2-a]pyrimidin-4-one]: the EC (1.5-fold) in experiment [1] (setting [3]) was determined as 0.0008 µM. In experiment [2], the EC (1.5-fold) turned out to be 0.0077 µM and the maximal fold induction worked out at 1.77.
Take `Cc1nc2ncc(-c3cc(=O)n4cc(N5CCCN(C)CC5)ccc4n3)cn2n1` [Example 4, 7-(4-methyl-1,4-diazepan-1-yl)-2-(2-methyl-[1,2,4]triazolo[1,5-a]pyrimidin-6-yl)pyrido[1,2-a]pyrimidin-4-one]: the EC (1.5-fold) in experiment [1] (setting [4]) was 0.1 µM. For the same molecule, in experiment [2], the EC (1.5-fold) was 0.324 µM and the maximal fold induction was determined as 1.78.
In the case of `Cc1nc2ccc(-c3cc(=O)n4cc(N5CCN(C6COC6)CC5)cc(C)c4n3)nn2n1` [Example 31, 9-methyl-7-[4-(oxetan-3-yl)piperazin-1-yl]-2-(2-methyl-[1,2,4]triazolo[1,5-b]pyridazin-6-yl)pyrido[1,2-a]pyrimidin-4-one], the EC (1.5-fold) in experiment [1] (setting [3]) worked out at 0.13 µM. Further, in experiment [2], the EC (1.5-fold) worked out at 1.31 µM and the maximal fold induction was determined as 1.75.
For `CCN1CCN(c2ccc3nc(-c4ccc5nc(C)nn5n4)cc(=O)n3c2)CC1` [Example 43, 7-(4-ethylpiperazin-1-yl)-2-(2-methyl-[1,2,4]triazolo[1,5-b]pyridazin-6-yl)pyrido[1,2-a]pyrimidin-4-one], in experiment [1] (setting [3]), the EC (1.5-fold) was found to be 0.0328 µM. In experiment [2], the EC (1.5-fold) worked out at 0.0562 µM and the maximal fold induction is 2.02.
As to `Cc1nc2ccc(-c3cc(=O)n4cc(N5CC6(CN(C)C6)C5)ccc4n3)nn2n1` [Example 46, 7-(6-methyl-2,6-diazaspiro[3.3]heptan-2-yl)-2-(2-methyl-[1,2,4]triazolo[1,5-b]pyridazin-6-yl)pyrido[1,2-a]pyrimidin-4-one], in experiment [1] (setting [3]), the EC (1.5-fold) worked out at 0.003 µM. In experiment [2], the EC (1.5-fold) was 0.0314 µM and the maximal fold induction worked out at 1.75.
Consider `Cc1nc2ncc(-c3cc(=O)n4cc(N5CCN[C@H](C)C5)ccc4n3)cn2n1` [Example 24, 7-[(3R)-3-methylpiperazin-1-yl]-2-(2-methyl-[1,2,4]triazolo[1,5-a]pyrimidin-6-yl)pyrido[1,2-a]pyrimidin-4-one], for which the results for the EC (1.5-fold) in experiment [1] (setting [3]) and in experiment [2] were 0.0348 µM and 0.121 µM, respectively. Also, in experiment [2], the maximal fold induction is 1.87.
On to `Cc1nc2ccc(-c3cc(=O)n4cc(N5CC6(CCNC6)C5)cc(C)c4n3)nn2n1` [Example 48, 7-(2,7-diazaspiro[3.4]octan-2-yl)-9-methyl-2-(2-methyl-[1,2,4]triazolo[1,5-b]pyridazin-6-yl)pyrido[1,2-a]pyrimidin-4-one], for which the EC (1.5-fold) in experiment [1] (setting [3]) is 0.168 µM. Further, in experiment [2], the EC (1.5-fold) amounted to 1.32 µM and the maximal fold induction amounted to 1.68.
